Reference: ChEMBL document CHEMBL5356956, “Optimizing and characterizing 4-methyl substituted pyrazol-3-carboxamides leading to the peripheral cannabinoid 1 receptor inverse agonist TM38837” (Bioorg Med Chem Lett, 2024)
Converted amounts (≈) assume the structure as drawn. The source made the active and inactive calls. The calls are words filed in the database; no cut-off is given here.

Columns and labels:
[1] = Protein binding in NMRI mouse plasma; format: ADME, cell-free; settings: read-out: PPB
[2] = In vivo inverse agonist activity at CB1 receptor in DIO mouse assessed as efficacy at 10 mg/kg, po measured after 6 hrs; format: functional
[3] = target: T1, Glucose-dependent insulinotropic receptor (Homo sapiens) (UniProt Q8TDV5); assay: Inhibition of GPR119 (unknown origin) at 1 uM relative to control
T1 sequence (whole entry): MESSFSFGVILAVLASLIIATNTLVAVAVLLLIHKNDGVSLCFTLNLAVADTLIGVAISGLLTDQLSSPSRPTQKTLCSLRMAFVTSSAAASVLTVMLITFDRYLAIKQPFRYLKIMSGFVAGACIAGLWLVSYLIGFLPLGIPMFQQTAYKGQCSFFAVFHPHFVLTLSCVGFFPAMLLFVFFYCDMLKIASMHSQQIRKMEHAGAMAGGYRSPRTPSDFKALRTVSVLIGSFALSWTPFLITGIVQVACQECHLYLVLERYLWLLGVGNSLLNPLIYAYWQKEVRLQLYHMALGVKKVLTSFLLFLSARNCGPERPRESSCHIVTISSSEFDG

[4] = system: Liver; assay: In vivo inhibition of CB1 receptor in liver of lean C57BL/6J mouse by autoradiography; format: functional, organism-based
[5] = Oral bioavailability in NMRI mouse at 10 mg/kg; format: ADME, organism-based; settings: in vivo
[6] = target: T2, Cannabinoid receptor 1 (Homo sapiens, UniProt P21554); assay: Inverse agonist activity at human CB1 receptor expressed in CHO-K1 cell membrane by GTP-gamma-S assay; format: functional, cell membranes
T2 sequence (P21554 whole entry): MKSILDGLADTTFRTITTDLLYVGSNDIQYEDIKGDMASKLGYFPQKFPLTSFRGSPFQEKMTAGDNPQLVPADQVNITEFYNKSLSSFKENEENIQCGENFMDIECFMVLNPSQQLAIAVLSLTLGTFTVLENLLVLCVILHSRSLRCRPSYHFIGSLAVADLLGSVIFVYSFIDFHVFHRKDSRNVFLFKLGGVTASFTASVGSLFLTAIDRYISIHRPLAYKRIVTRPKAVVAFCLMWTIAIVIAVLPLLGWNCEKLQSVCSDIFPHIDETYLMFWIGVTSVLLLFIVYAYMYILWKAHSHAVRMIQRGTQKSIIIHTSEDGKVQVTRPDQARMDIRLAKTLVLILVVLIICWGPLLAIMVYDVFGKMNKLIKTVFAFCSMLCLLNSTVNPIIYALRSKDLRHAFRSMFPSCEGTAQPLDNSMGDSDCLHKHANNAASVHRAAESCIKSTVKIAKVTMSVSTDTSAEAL

[7] = Tmax in NMRI mouse at 10 mg/kg, po; format: ADME, organism-based; settings: in vivo
[8] = Drug concentration in DIO mouse brain at 10 mg/kg, po measured for 6 hrs; format: ADME, organism-based; settings: read-out: Drug uptake
[9] = Half life in NMRI mouse at 2 mg/kg, iv; format: ADME, organism-based; settings: in vivo
[10] = Half life in NMRI mouse at 10 mg/kg, po; format: ADME, organism-based; settings: in vivo
[11] = target: CYP2C9 (Homo sapiens, UniProt P11712); assay: Inhibition of CYP2C9 (unknown origin) at 10 uM relative to control; format: ADME
CYP2C9, sequence (P11712 whole entry): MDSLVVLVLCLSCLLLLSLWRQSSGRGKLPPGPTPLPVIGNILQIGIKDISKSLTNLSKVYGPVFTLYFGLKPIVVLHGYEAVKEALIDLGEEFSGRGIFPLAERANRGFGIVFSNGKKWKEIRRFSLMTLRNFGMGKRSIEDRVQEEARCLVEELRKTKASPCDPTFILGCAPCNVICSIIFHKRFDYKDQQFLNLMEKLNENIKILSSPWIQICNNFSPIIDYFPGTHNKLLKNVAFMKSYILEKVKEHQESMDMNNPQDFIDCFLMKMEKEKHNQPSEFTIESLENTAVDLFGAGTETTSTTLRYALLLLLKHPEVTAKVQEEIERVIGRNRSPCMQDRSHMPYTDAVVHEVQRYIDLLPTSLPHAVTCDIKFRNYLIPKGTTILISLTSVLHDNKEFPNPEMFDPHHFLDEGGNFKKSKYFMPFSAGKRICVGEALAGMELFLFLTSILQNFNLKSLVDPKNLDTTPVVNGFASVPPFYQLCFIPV

[12] = target: Cannabinoid receptor 2 (Homo sapiens, UniProt P34972); assay: Inverse agonist activity at human CB2 receptor expressed in CHO-K1 cell membrane in presence of CP55940 by GTP-gamma-S assay; format: functional, cell membranes
Cannabinoid receptor 2, sequence (P34972 whole entry): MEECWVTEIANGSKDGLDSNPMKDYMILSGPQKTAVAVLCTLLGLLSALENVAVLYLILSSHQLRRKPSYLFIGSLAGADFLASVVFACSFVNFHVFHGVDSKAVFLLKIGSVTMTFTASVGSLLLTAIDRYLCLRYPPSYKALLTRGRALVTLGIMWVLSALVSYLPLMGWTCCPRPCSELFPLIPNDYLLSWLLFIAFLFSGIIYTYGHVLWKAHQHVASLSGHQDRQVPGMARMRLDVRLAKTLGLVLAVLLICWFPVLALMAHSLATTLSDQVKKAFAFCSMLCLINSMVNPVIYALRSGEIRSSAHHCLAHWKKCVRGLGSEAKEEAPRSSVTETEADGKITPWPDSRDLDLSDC

[13] = Efflux ratio of permeability in human Caco-2 cells; format: ADME, cell-based
[14] = Clearance in NMRI mouse at 2 mg/kg, iv; format: ADME, organism-based; settings: in vivo
[15] = Drug concentration in DIO mouse plasma at 10 mg/kg, po measured for 6 hrs; format: ADME, organism-based
[16] = AUC (infinity) in NMRI mouse at 10 mg/kg, po; format: ADME, organism-based; set-up: dose 10 mg/kg, route po; settings: in vivo
[17] = Drug concentration in DIO mouse brain at 10 mg/kg, po measured for 24 hrs; format: ADME, organism-based; settings: brain, read-out: Drug uptake
[18] = Drug uptake in brain of lean C57BL/6J mouse by autoradiography; format: ADME, tissue-based; settings: in vivo
[19] = AUC (infinity) in NMRI mouse at 2 mg/kg, iv; format: ADME, organism-based; set-up: dose 2 mg/kg, route iv; settings: in vivo
[20] = Drug concentration in DIO mouse liver at 10 mg/kg, po measured for 6 hrs; format: ADME, organism-based; settings: read-out: Drug uptake
[21] = Half life in NMRI mouse at 30 mg/kg, po; format: ADME, organism-based; settings: in vivo
[22] = Solubility of compound; format: physicochemical
[23] = Drug concentration in DIO mouse brain at 10 mg/kg, po measured for 6 hrs relative to plasma concentration; format: ADME, organism-based
[24] = Drug concentration in NMRI mouse brain relative to plasma concentration; format: ADME, tissue-based
[25] = Volume of distribution at steady state in NMRI mouse at 2 mg/kg, iv; format: ADME, organism-based; settings: in vivo, read-out: Vdss
[26] = Oral bioavailability in NMRI mouse at 30 mg/kg; format: ADME, organism-based; settings: in vivo
[27] = Cmax in NMRI mouse at 30 mg/kg, po; format: ADME, organism-based; set-up: dose 30 mg/kg, route po; settings: in vivo
[28] = Tmax in NMRI mouse at 30 mg/kg, po; format: ADME, organism-based; settings: in vivo
[29] = AUC (infinity) in NMRI mouse at 30 mg/kg, po; format: ADME, organism-based; set-up: dose 30 mg/kg, route po; settings: in vivo
[30] = Subchronic toxicity in DIO mouse assessed as reduction in body weight at 10 mg/kg, po measured after 7 days; format: organism-based; set-up: scale not given: the % may be the effect or the level left; settings: in vivo, 168 h, time 7 day
[31] = Clearance in rat hepatocytes assessed per million cells; format: ADME, cell-based, Hepatocyte
[32] = Cmax in NMRI mouse at 10 mg/kg, po; format: ADME, organism-based; set-up: dose 10 mg/kg, route po; settings: in vivo
[33] = target: T2, Cannabinoid receptor 1; assay: Antagonist activity at human CB1 receptor expressed in CHO-K1 cell membrane in presence of CP55940 by GTP-gamma-S assay; format: functional, cell membranes
[34] = Drug concentration in DIO mouse adipose tissue at 10 mg/kg, po measured for 6 hrs; format: ADME, organism-based; settings: read-out: Drug uptake
[35] = target: T2, Cannabinoid receptor 1; assay: Inverse agonist activity at human CB1 receptor expressed in African green monkey COS7 cells co-expressing G-protein in presence of CP55940 by IP3 assay; format: functional, cell membranes, Membrane
[36] = target: G-protein coupled receptor 55 (Homo sapiens) (UniProt Q9Y2T6); assay: Inhibition of GPR55 (unknown origin) at 1 uM relative to control
G-protein coupled receptor 55 (Homo sapiens), sequence (Q9Y2T6 whole entry): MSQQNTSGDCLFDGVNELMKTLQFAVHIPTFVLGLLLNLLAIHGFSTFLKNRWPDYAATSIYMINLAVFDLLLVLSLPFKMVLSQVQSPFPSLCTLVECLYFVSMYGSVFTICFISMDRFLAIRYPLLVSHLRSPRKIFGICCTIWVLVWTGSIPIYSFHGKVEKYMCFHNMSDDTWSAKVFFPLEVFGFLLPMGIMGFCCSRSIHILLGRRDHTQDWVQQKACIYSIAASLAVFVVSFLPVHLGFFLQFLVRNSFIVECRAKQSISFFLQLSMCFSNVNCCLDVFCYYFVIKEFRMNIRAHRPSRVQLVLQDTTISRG

[37] = Drug concentration in DIO mouse adipose tissue assessed as fold increase at 10 mg/kg, po measured for 6 hrs relative to plasma concentration; format: ADME, organism-based; settings: read-out: FC
[38] = Lipophilicity, logD of compound by chromatographic analysis; format: physicochemical

`C[C@@H](NC(=O)c1nn(-c2ccccc2Cl)c(-c2ccc(Cl)cc2)c1Cc1nn[nH]n1)c1ccc(C(F)(F)F)cc1` showed a fraction unbound [1] of under 0.01, an Efficacy [2] of 11% and an inhibition [3] of under 30%. For the same compound, the inhibition [4] was “Active”, the bioavailability [5] was 95% and the IC50 [6] was 24 nM. For the same compound, the Tmax [7] was 2 h, the concentration at 6 h [8] was 80 nM and the half-life [9] was 150 min. The half-life [10] was 186 min, the inhibition at 10 µM [11] was 39% and the IC50 [12] was 4.5 µM. It also gave an efflux ratio [13] of 1, a clearance [14] of 2.6 mL/min/kg and a concentration at 6 h [15] of 6.5 µM. The AUC(0-inf) [16] was 104 µM·h, the concentration at 24 h [17] was 20 nM and the Drug uptake [18] was “Active”. It also gave an AUC(0-inf) [19] of 22 µM·h, a concentration at 6 h [20] of 47 µM and a half-life [21] of 240 min. For the same compound, the solubility [22] was 250 µM (≈ 147 µg/mL), the Drug uptake [23] was 1.3% and the Drug uptake [24] was ~ 1%. It also gave a Vd [25] of 0.4 L/kg, a bioavailability [26] of 91% and a Cmax [27] of 41 µM. The Tmax [28] was 2 h, the AUC(0-inf) [29] was 297 µM·h and the Activity [30] was 11.4%. It also gave a CLH [31] of 16 µL/min/1e6 cells, a Cmax [32] of 13 µM and an IC50 [33] of 6.7 nM. For the same compound, the concentration at 6 h [34] was 1200 nM, the IC50 [35] was 3.3 nM and the inhibition [36] was under 30%. The Kp at 6 h [37] was 5 and the chromatographic logD [38] was 2.8.
